Series [1] in a line: activity coefficient (dimensionless); of the first substance listed, at infinite dilution; xn = mol fraction of the nth substance listed. The note with it: Liquid, Chromatography, x1 = 0.
The conditions of series [2]: 293.15 K; 101.33 kPa; Liquid; Pycnometric method.

Several values for one entry are separate records, joined by “and”; a condition that tells them apart may be missing. Equal entries are not always repeated. ± gives the expanded uncertainty stated by the source.

For `C=CCCCC` [hex-1-ene] + CCCCn1cc[n+](C)c1.[F][Sb-]([F])([F])([F])([F])[F], the activity coefficient in series [1] (313.15 K) was 14 and 13.1; in series [1] (323.15 K), 13 and 14.1; in series [1] (333.15 K), 13.4 and 13.8.

With `Cc1ccccc1` [toluene] + CCCCn1cc[n+](C)c1.[F][Sb-]([F])([F])([F])([F])[F], the activity coefficient in series [1] (313.15 K) is 1.87 and 1.78; in series [1] (323.15 K) it was 1.88 and 1.94; in series [1] (333.15 K), 1.92 and 1.97.

In the case of `C=CCCCCC` [1-heptene] + CCCCn1cc[n+](C)c1.[F][Sb-]([F])([F])([F])([F])[F], the activity coefficient in series [1] (313.15 K) was 19.3 and 21.1; in series [1] (323.15 K), 17.8 and 19.7; in series [1] (333.15 K), 15.9 and 16.6.

Consider `CCCCC` [pentane] + CCCCn1cc[n+](C)c1.[F][Sb-]([F])([F])([F])([F])[F], for which the activity coefficient in series [1] (313.15 K) was 19.6 and 21.5; in series [1] (323.15 K), 17.6 and 18.3; in series [1] (333.15 K), 17 and 18.1.

Take `CCCCCC` [hexane] + CCCCn1cc[n+](C)c1.[F][Sb-]([F])([F])([F])([F])[F]: the activity coefficient is 28.6 and 27.9 in series [1] (313.15 K); 26.4 and 28.2 in series [1] (323.15 K); 26 and 26.6 in series [1] (333.15 K).

Take `CCC(C)=O` [butanone] + CCCCn1cc[n+](C)c1.[F][Sb-]([F])([F])([F])([F])[F]: the activity coefficient in series [1] (313.15 K) was 0.648 and 0.632; in series [1] (323.15 K) it was 0.681 ± 0.058; in series [1] (333.15 K) it was 0.702 and 0.718.

With `c1ccccc1` [benzene] + CCCCn1cc[n+](C)c1.[F][Sb-]([F])([F])([F])([F])[F], the activity coefficient in series [1] (313.15 K) is 1.23 and 1.31; in series [1] (323.15 K), 1.28 and 1.37; in series [1] (333.15 K), 1.31 and 1.37.

As to `CO` [methanol] + CCCCn1cc[n+](C)c1.[F][Sb-]([F])([F])([F])([F])[F], the activity coefficient in series [1] (313.15 K) is 1.7 and 1.88; in series [1] (323.15 K) it was 1.64 and 1.71; in series [1] (333.15 K) it was 1.57 ± 0.13.

With `CCCCCCC` [heptane] + CCCCn1cc[n+](C)c1.[F][Sb-]([F])([F])([F])([F])[F], the activity coefficient is 37.1 and 38.7 in series [1] (313.15 K); 34.2 and 35.8 in series [1] (323.15 K); 31.4 and 34.4 in series [1] (333.15 K).

With `CCCCCCCCC` [nonane] + CCCCn1cc[n+](C)c1.[F][Sb-]([F])([F])([F])([F])[F], the activity coefficient in series [1] (313.15 K) is 47.7 and 48.8; in series [1] (323.15 K), 44.9 and 49.1; in series [1] (333.15 K), 44.1 and 47.3.

As for `CC(C)=O` [acetone] + CCCCn1cc[n+](C)c1.[F][Sb-]([F])([F])([F])([F])[F], the activity coefficient is 0.403 and 0.437 in series [1] (313.15 K); 0.445 and 0.466 in series [1] (323.15 K); 0.463 and 0.487 in series [1] (333.15 K).

For `C=CCCC` [1-pentene] + CCCCn1cc[n+](C)c1.[F][Sb-]([F])([F])([F])([F])[F], the activity coefficient in series [1] (313.15 K) is 10.1 and 10.5; in series [1] (323.15 K) it was 10.2 ± 0.9; in series [1] (333.15 K), 9.94 and 10.4.

For the compound `C#CCCCCCCC` [1-nonyne] + CCCCn1cc[n+](C)c1.[F][Sb-]([F])([F])([F])([F])[F], the activity coefficient in series [1] (313.15 K) was 11.4 and 11.6; in series [1] (323.15 K) it was 10.9 and 11.8; in series [1] (333.15 K), 10.9 and 11.6.

On to `C=CCCCCCC` [oct-1-ene] + CCCCn1cc[n+](C)c1.[F][Sb-]([F])([F])([F])([F])[F], for which the activity coefficient in series [1] (313.15 K) was 25.7 ± 2.2; in series [1] (323.15 K), 24.6 and 25.7; in series [1] (333.15 K), 24.2 and 24.9.

With `C#CCCCCCC` [1-octyne] + CCCCn1cc[n+](C)c1.[F][Sb-]([F])([F])([F])([F])[F], the activity coefficient is 8.68 and 9.4 in series [1] (313.15 K); 8.82 and 9.08 in series [1] (323.15 K); 8.56 and 8.99 in series [1] (333.15 K).

For `C#CCCCC` [1-hexyne] + CCCCn1cc[n+](C)c1.[F][Sb-]([F])([F])([F])([F])[F], the activity coefficient in series [1] (313.15 K) was 4.26 and 4.05; in series [1] (323.15 K), 4.11 and 4.23; in series [1] (333.15 K), 4.1 and 4.32.

In the case of `CCO` [ethanol] + CCCCn1cc[n+](C)c1.[F][Sb-]([F])([F])([F])([F])[F], the activity coefficient in series [1] (313.15 K) is 2.33 and 2.46; in series [1] (323.15 K), 2.14 and 2.3; in series [1] (333.15 K), 2.01 and 2.07.

Regarding `CCCO` [propan-1-ol] + CCCCn1cc[n+](C)c1.[F][Sb-]([F])([F])([F])([F])[F], the activity coefficient was 3.13 and 3.22 in series [1] (313.15 K); 2.82 and 2.96 in series [1] (323.15 K); 2.51 and 2.75 in series [1] (333.15 K).

`C1CCCCC1` [cyclohexane] + CCCCn1cc[n+](C)c1.[F][Sb-]([F])([F])([F])([F])[F]: the activity coefficient in series [1] (313.15 K) was 16.4 and 15.4; in series [1] (323.15 K) it was 11 and 18.6; in series [1] (333.15 K), 14.1 and 14.6.

With `C1CCCCCCC1` [cyclooctane] + CCCCn1cc[n+](C)c1.[F][Sb-]([F])([F])([F])([F])[F], the activity coefficient in series [1] (313.15 K) is 22.9 and 23.4; in series [1] (323.15 K) it was 17.2 and 27.1; in series [1] (333.15 K) it was 20.4 and 21.5.

On to `CCc1ccccc1` [ethylbenzene] + CCCCn1cc[n+](C)c1.[F][Sb-]([F])([F])([F])([F])[F], for which the activity coefficient in series [1] (313.15 K) is 3.11 and 2.92; in series [1] (323.15 K) it was 3.09 and 3.23; in series [1] (333.15 K), 3.18 and 3.45.

On to `C#CCCC` [1-pentyne] + CCCCn1cc[n+](C)c1.[F][Sb-]([F])([F])([F])([F])[F], for which the activity coefficient in series [1] (313.15 K) is 2.8 and 2.88; in series [1] (323.15 K), 2.89 and 2.9; in series [1] (333.15 K) it was 2.93 and 3.03.

Regarding `CCCCCCCC` [octane] + CCCCn1cc[n+](C)c1.[F][Sb-]([F])([F])([F])([F])[F], the activity coefficient was 40.4 and 44.6 in series [1] (313.15 K); 39.5 and 42.7 in series [1] (323.15 K); 39.2 and 42.7 in series [1] (333.15 K).

Regarding `C1CCCC1` [cyclopentane] + CCCCn1cc[n+](C)c1.[F][Sb-]([F])([F])([F])([F])[F], the activity coefficient in series [1] (313.15 K) was 11.4 and 11.9; in series [1] (323.15 K), 10.6 and 10.9; in series [1] (333.15 K), 10.2 and 10.7.

Usually mass density stands for mass per unit of volume. For the compound `CCCCn1cc[n+](C)c1.[F][Sb-]([F])([F])([F])([F])[F]` [1-butyl-3-methylimidazolium hexafluoroantimonate], the mass density in series [2] is listed as 1694.3 ± 3.8 kg/m3.

Consider `C1CCCCCC1` [cycloheptane] + CCCCn1cc[n+](C)c1.[F][Sb-]([F])([F])([F])([F])[F], for which the activity coefficient in series [1] (313.15 K) was 20 and 18.7; in series [1] (323.15 K), 15.7 and 21.1; in series [1] (333.15 K) it was 17.3 and 18.2.

Turning to `C#CCCCCC` [1-heptyne] + CCCCn1cc[n+](C)c1.[F][Sb-]([F])([F])([F])([F])[F], the activity coefficient in series [1] (313.15 K) was 5.74 and 6.11; in series [1] (323.15 K), 5.82 and 6.08; in series [1] (333.15 K), 5.74 and 6.23.

Consider `C=CCCCCCCC` [1-nonene] + CCCCn1cc[n+](C)c1.[F][Sb-]([F])([F])([F])([F])[F], for which the activity coefficient in series [1] (313.15 K) is 32.4 and 32.6; in series [1] (323.15 K), 30.8 and 33.4; in series [1] (333.15 K) it was 30.8 and 32.6.

For the origin of these results see the NIST ThermoML archive (doi:10.1016/j.jct.2010.12.019).
